Paper PMC8389907 (Journal of Medicinal Chemistry, 2021)
In brackets after ≈: the same amount, converted by molar mass. Like-named read-outs stand apart in the source and are kept apart here.

What was measured:
MCF7 cells = assay: MTT cell viability assay, MCF7; assay type: cell-based; conditions: Homo sapiens, 72 h treatment, MTT, read-out: IC50 MCF7
Procedure: (§1) The cell lines DU145 (HTB-81, human prostate carcinoma), PC3 (CRL-1435, human prostate adenocarcinoma), MCF7 (HTB-22, human breast adenocarcinoma), MDA-MB231 (HTB-26, human breast adenocarcinoma), and HCT116 (CCL-247, human colorectal carcinoma) were obtained from ATCC (American Type Culture Collection, Manassas, VA, USA); WH1 human fibroblasts were kindly provided by Dr. Guven.[51] All the cells were maintained under standard culture conditions (37 °C; 5% CO2) in the RMPI1640 medium (PC3, MCF7, and MDA-MB231 cells), while DU145 and HCT116 cells were in the DMEM and Iscove’s medium (WH1 cells) supplemented with 10% fetal calf serum, 1% glutamine, and 1% antibiotics mixture; for HCT116 and DU145 cells, 1% sodium pyruvate and 1% non-essential amino acids were also added to the culture medium.
(§2) The 3-(4,5-dimethylthiazol-2-yl)-2,5-diphenyltetrazolium bromide (MTT) assay was performed on all the cell lines tested as previously described[52] with minor modifications. Briefly, according to the growth profiles previously defined for each cell line, adequate numbers of cells were plated in each well of a 96-well plate in 0.1 mL of complete culture medium. Cells were allowed to attach for 24 h before the treatment at 37 °C for 72 h with the compounds at concentrations ranging between 0.1 and 75 μM, bringing the final volume to 0.2 mL/well. Each experiment included eight replications per concentration tested; control samples were run with 0.2% DMSO. At the end of the incubation period, MTT (0.05 mL of a 2 mg/mL stock solution in PBS) was added to each well for 3 h at 37 °C. Cell supernatants were then carefully removed, the blue formazan crystals formed through MTT reduction by metabolically active cells were dissolved in 0.120 mL of DMSO, and the corresponding optical densities were measured at 570 nm using a Universal Microplate Reader EL800 (Bio-Tek, Winooski, VT).
(§3) IC50 values were estimated from the resulting concentration–response curves by nonlinear regression analysis using GraphPad Prism software, v. 5.0 (GraphPad, San Diego, CA, USA). Differences between IC50 values were evaluated statistically by analysis of variance with a Bonferroni post-test for multiple comparisons.

MDA-MB231 cells = assay: MTT cell viability assay, MDA-MB231; assay type: cell-based; conditions: Homo sapiens, MDA-MB-231
Procedure: as §1, §2, §3

PC3 cells [1] = assay: MTT cell viability assay, PC3; assay type: cell-based; conditions: Homo sapiens, PC-3
Procedure: as §1, §2, §3

MCF7/ADR cells = assay: MTT cell viability assay, DOX-resistant MCF7/ADR; assay type: cell-based, human; conditions: for IC50: Homo sapiens, NCI/ADR-RES, 72 h treatment, MTT; for R.I. (resistance index): MCF7/ADR vs MCF7
Procedure: as §2, §3

HCT116 cells = assay: MTT cell viability assay, HCT116; assay type: cell-based; conditions: Homo sapiens, HCT-116
Procedure: as §1, §2, §3

DU145 cells [2] = assay: MTT cell viability assay, DU145; assay type: cell-based; conditions: Homo sapiens, DU-145
Procedure: as §1, §2, §3

P. aeruginosa PAO1 [3] = assay: Minimum inhibitory concentration, broth dilution; assay type: cell-based; conditions: Pseudomonas aeruginosa; 24 h incubation at 37 °C, strain PAO1
Procedure: P. aeruginosa PAO1 was chosen as a model microorganism[53] and was grown overnight in a Luria Bertani (LB) medium at 37 °C on an orbital shaker at 200 rpm. Minimum inhibitory concentrations (MICs) of quinolone and quinolone derivatives were determined against P. aeruginosa PAO1 by a broth dilution method. Overnight cultures were diluted 100-fold to give a cellular concentration of 10^7 CFU/mL. […] The assays were performed at least three times.

HBL100 cells = assay: MTT cell viability assay, non-tumorigenic HBL100; assay type: cell-based; conditions: Homo sapiens, HBL-100, 72 h treatment
Procedure: as §2, §3

PC3 cells [4] = assay: MTT assay with 1 h irradiation, PC3; assay type: cell-based, human; conditions: 24 h treatment, 1 h white or blue light, 48 h drug-free medium
Procedure: (§4) To evaluate the contribution of NO release on cell viability, the MTT assay was performed on DU145 and PC3 cells following treatment with 7b and 7c with 1 h irradiation and 48 h incubation in a drug-free medium.
as §3

DU145 cells [5] = assay: MTT assay with 1 h irradiation, DU145; assay type: cell-based, human; conditions: 24 h treatment, 1 h white or blue light, 48 h drug-free medium
Procedure: as §4, §3

WH1 human fibroblasts = assay: MTT cell viability assay, WH1 fibroblasts; assay type: cell-based; conditions: Fibroblast, 72 h treatment
Procedure: as §1, §2, §3

P. aeruginosa PAO1 [6] = assay: Antimicrobial photo-inactivation test, P. aeruginosa; assay type: cell-based, Pseudomonas aeruginosa; conditions: 10 μM, 10 min dark incubation, 405 ± 10 nm, 20 J/cm^2
Procedure: (§5) Upon the overnight growth of P. aeruginosa PAO1 and S. aureus ATCC6538P (methicillin susceptible S. aureus, MSSA), cultures were diluted in phosphate buffer (PBS–KH2PO4/K2HPO4, 10 mM, pH 7.4) to reach a concentration of ∼10^6 CFU/mL. Compound 7c was added to a cell suspension at a final concentration of 10 μM. Cells were incubated in the dark for 10 min and then irradiated under light at […] (20 J/cm^2) or incubated in the dark as a control. Soon after irradiation, the bacterial concentration was evaluated by the viability count technique. Briefly, an aliquot of each sample was 10-fold serially diluted in PBS and a volume of 10 μL of each diluted and undiluted sample was inoculated on LB agar. After overnight incubation at 37 °C, the corresponding cellular concentration was calculated and expressed as CFU/mL.

S. aureus ATCC 6538P = assay: Antimicrobial photo-inactivation test, S. aureus; assay type: cell-based, Staphylococcus aureus; conditions: 10 μM, 10 min dark incubation, blue light 20 J/cm^2
Procedure: as §5

[7] = 72 h treatment, MTT, read-out: IC50 MDA-MB231
[8] = 72 h treatment, MTT, read-out: IC50 PC3
[9] = 72 h treatment, MTT, read-out: IC50 HCT116
[10] = 72 h treatment, MTT, read-out: IC50 DU145
[11] = supplement csv, unit inferred, read-out: DU145 IC50

Row | IC50 (MDA-MB231 cells; supplement csv, unit inferred, read-out: MDA-MB231 IC50) [µM] | IC50 (PC3 cells [1]; supplement csv, unit inferred, read-out: PC3 IC50) [µM] | IC50, irradiated vs kept in the dark, PC3 (PC3 cells [4]) | IC50, irradiated vs kept in the dark, DU145 (DU145 cells [5]) | IC50 (DU145 cells [2]; [11]) [µM] | IC50 (HCT116 cells; supplement csv, unit inferred, read-out: HCT116 IC50) [µM] | SMILES | IC50 (MCF7 cells) [µM] | IC50 (MDA-MB231 cells; [7]) [µM] | IC50 (PC3 cells [1]; [8]) [µM] | IC50 (MCF7/ADR cells) [µM] | IC50 (HCT116 cells; [9]) [µM] | IC50 (DU145 cells [2]; [10]) [µM] | MIC (P. aeruginosa PAO1 [3]) [µg/mL] | IC50 (HBL100 cells) [µM] | R.I. (resistance index) (MCF7/ADR cells) | IC50 (WH1 human fibroblasts) [µM] | antimicrobial activity upon blue light irradiation (P. aeruginosa PAO1 [6]) | decrease in viable S. aureus with respect to the dark incubated control (S. aureus ATCC 6538P) [log unit]
1 | – | – | – | – | – | – | O=C(O)c1cn(C2CC2)c2cc(N3CCNCC3)c(F)cc2c1=O [Cip, Ciprofloxacin, reference compound] | 8.85 ± 0.09 | 19.9 ± 3.6 | 33.9 ± 2.9 | 19.1 ± 0.5 | 31.5 ± 1.5 | 24.9 ± 0.8 | 1.82 ± 1.19 (≈ 5.49 µM) | – | – | – | – | –
2 | 2.51 ± 0.43 | 3.02 ± 0.59 | no differences in IC50 values | no differences in IC50 values | 2.42 ± 0.9 | – | O=C(O)c1cn(C2CC2)c2cc(N3CCN(CCCNc4ccc([N+](=O)[O-])c(C(F)(F)F)c4)CC3)c(F)cc2c1=O [Compound 7b, 1-Cyclopropyl-6-fluoro-7-(4-(3-((4-nitro-3-(trifluoromethyl)phenyl)amino)propyl)piperazin-1-yl)-4-oxo-1,4-dihydroquinoline-3-carboxylic Acid] | 5.23 ± 0.82 | < 2.5 | – | 23.6 ± 3.6 | 1.83 | < 3 | – | 9.19 ± 0.66 | 4.5 | 7.05 ± 1.2 | – | –
3 | – | – | no differences in IC50 values | no differences in IC50 values | 1.57 ± 0.59 | 2.15 ± 0.39 | CCn1cc(C(=O)O)c(=O)c2cc(F)c(N3CCN(CCNc4ccc([N+](=O)[O-])c(C(F)(F)F)c4)CC3)cc21 [Compound 7c, 1-Ethyl-6-fluoro-7-(4-(2-((4-nitro-3-(trifluoromethyl)phenyl)amino)ethyl)piperazin-1-yl)-4-oxo-1,4-dihydroquinoline-3-carboxylic Acid] | 2.27 | 1.52 | 2.33 | 18.3 ± 1.4 | – | – | – | 11.1 ± 0.2 | 8.1 | 3.51 ± 0.4 | did not show any antimicrobial activity | 2
4 | – | – | – | – | – | – | CCn1cc(C(=O)O)c(=O)c2cc(F)c(N3CCNCC3)cc21 [Nor, Norfloxacin, reference compound] | 19.4 ± 0.7 | 14.9 ± 2.7 | 33.6 ± 3 | 20.1 ± 1.4 | 12.5 ± 2.6 | 12 ± 0.6 | 4.16 ± 1.8 (≈ 13 µM) | 12.4 ± 0.8 | 1.0 | 14.1 ± 2.1 | – | –
